Holding throughout (format): cell-based
The target in assay [1] is T1, rat ASIC1a (Rattus norvegicus, UniProt P55926).
T1 construct: expressed in transfected cells
T1 sequence (P55926 1-526): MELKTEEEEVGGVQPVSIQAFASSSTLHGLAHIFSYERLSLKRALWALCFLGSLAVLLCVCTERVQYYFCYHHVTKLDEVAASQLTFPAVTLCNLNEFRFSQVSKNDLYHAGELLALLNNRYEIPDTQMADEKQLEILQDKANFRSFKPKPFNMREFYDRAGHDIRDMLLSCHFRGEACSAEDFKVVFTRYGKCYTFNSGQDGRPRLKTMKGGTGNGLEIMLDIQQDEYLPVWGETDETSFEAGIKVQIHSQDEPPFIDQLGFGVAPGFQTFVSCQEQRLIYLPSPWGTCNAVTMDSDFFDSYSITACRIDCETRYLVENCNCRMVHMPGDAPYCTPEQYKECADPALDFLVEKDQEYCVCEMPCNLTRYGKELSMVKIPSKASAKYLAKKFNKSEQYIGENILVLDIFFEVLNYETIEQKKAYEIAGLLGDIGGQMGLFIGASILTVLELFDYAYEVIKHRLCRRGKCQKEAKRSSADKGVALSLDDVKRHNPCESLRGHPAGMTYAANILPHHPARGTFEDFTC
The experiment in a line: pH dependence of channel activation (whole-cell patch clamp). Conditions: holding pH 8.2. As for the experimental part: (§1) Chinese Hamster Ovary (CHO) cells stably expressing rat ASIC1a were cultured in Ham’s F12, supplemented with 10% FBS, 1% penicillin–streptomycin and 500 µg/mL G418 and incubated at 37 °C with 5% CO2. Transient transfections of rASIC1a and cASIC1 wild-type or mutant channels in CHO cells were performed with Lipofectamine 3000 (Thermo Fisher Scientific) according to the manufacturer’s recommendations. The green fluorescent protein (GFP) cDNA (at 1/10 the amount of channel cDNA) was co-transfected with channel cDNA to aid the identification of transfected cells under the microscope in patch clamp experiments. All cDNAs were sequence verified.
(§2) Cells were freshly dissociated with CellStripper (Corning) and dispersed in a chamber on the stage of an inverted microscope. Upon formation of the whole-cell conformation, the cell was lifted from the bottom of the chamber and placed at the tip of a tubing perfusing an extracellular solution containing (in mM): 149 NaCl, 2 CaCl2, 4 KCl, 1 MgCl2, 5 glucose, 10 HEPES, pH 7.4, 310 mOsm/L. Extracellular solutions at more basic or acidic pHs were made by titrating the above pH 7.4 solution with NaOH or HCl (5 mM MES was added to solutions at pH 6.0 and lower). Pipette electrodes were filled with an intracellular solution containing (in mM): 135 KCl, 4 MgATP, 0.3 Na2GTP, 10 EGTA, and 20 HEPES, pH 7.2, 290 mOsm/L.
(§3) All recordings were performed at room temperature using an Axopatch 200B amplifier and pClamp 11 software (Molecular Devices). Currents were measured by whole-cell patch clamp, digitized at 10 kHz and lowpass filtered at 2 kHz. Series resistance was 75% compensated. Responses were elicited by rapid perfusion of acidic solutions using the SF-77B Fast-Step Perfusion device (Warner Instruments) for 40 ms once every 30 s (unless indicated otherwise) and recorded till steady state was reached. The holding potential was 0 mV unless indicated otherwise.
(§4) Baseline values (i.e., current amplitudes at the conditioning pH) were subtracted to obtain responses evoked by the test pH. Responses were normalized for each cell before averaging (see figure legends for more detail on normalization for each type of experiment). Concentration–response data were fitted to a logistic function of the form: R = (A1–A2)/(1 + (C/C0)^h)+A2, where R is the normalized response, C is either pH or compound concentration, C0 is the pH/concentration at which half-maximal response occurs (pH50 or IC50), h is the Hill coefficient, and A1 and A2 are constants. Kinetic parameters were obtained by fitting the data with either a single or double exponential function. Fitted data are shown as solid, dashed, or dotted curves.

The target of assay [2] is T1, rat ASIC1a. Kind of assay: pH dependence of steady-state desensitization (whole-cell patch clamp). Here is the method:
as §1, §2, §3, §4

The target of assay [3] is T1, rat ASIC1a. The experiment in a line: Kinetics of closed-state (pH 7.1-induced) desensitization and recovery. To be noted: 100 nM. As for the experimental part: as §1, §2, §3, §4
The target in a further assay is T2, ASIC2a (Rattus norvegicus, UniProt Q62962).
T2 sequence (Q62962 1-512): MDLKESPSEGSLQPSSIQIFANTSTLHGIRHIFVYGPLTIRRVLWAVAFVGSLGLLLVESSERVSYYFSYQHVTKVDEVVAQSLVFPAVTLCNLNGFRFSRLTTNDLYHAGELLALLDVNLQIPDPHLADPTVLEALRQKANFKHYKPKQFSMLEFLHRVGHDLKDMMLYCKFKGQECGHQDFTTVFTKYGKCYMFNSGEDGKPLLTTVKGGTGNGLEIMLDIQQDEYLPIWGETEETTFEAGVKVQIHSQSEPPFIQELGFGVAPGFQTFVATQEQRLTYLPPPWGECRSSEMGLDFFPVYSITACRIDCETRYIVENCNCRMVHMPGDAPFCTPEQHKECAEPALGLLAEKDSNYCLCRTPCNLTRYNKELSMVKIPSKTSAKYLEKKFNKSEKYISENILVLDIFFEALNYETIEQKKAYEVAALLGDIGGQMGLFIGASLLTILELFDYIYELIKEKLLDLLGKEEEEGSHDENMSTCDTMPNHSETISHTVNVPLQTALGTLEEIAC
The experiment in a line: Activity at ASIC2a. Conditions: inactive at ASIC2a.

Where “and” joins values, the source holds several entries; their conditions need not be identical. Equal entries are not always repeated. Some results are limits rather than exact numbers.

As to `Cc1cc(N2CC(Oc3cc(F)c4c(N)n[nH]c4c3)C2)c(F)cn1` [JNJ-67869386], the “max %response of channel activation” value came to 95.3 ± 1.6% on rat ASIC1a [1] (10 nM); 88.1 ± 1.0% on rat ASIC1a [1] (30 nM); 82.6 ± 0.3% on rat ASIC1a [1] (100 nM); 84.1 ± 0.5% at rat ASIC1a [1] (300 nM); 87.4 ± 0.5% on rat ASIC1a [1] (1000 nM); 82.9 ± 0.5% on rat ASIC1a [1] (3000 nM). The “pH50 of channel activation” value at rat ASIC1a [1] (10 nM) is 6.02 ± 0.03; at rat ASIC1a [1] (30 nM), 5.87 ± 0.02; at rat ASIC1a [1] (100 nM) it was 5.73 ± 0.00; at rat ASIC1a [1] (300 nM) it was 5.70 ± 0.01; on rat ASIC1a [1] (1000 nM) it was 5.68 ± 0.01; on rat ASIC1a [1] (3000 nM) it was 5.70 ± 0.01. For the same molecule, the “pH50 of steady-state desensitization” value is 7.30 ± 0.03 on rat ASIC1a [2] (0.1 µM), 7.27 ± 0.01 at rat ASIC1a [2] (1 µM) and 7.26 ± 0.01 at rat ASIC1a [2] (10 µM). The “steady-state desensitization, current % of conditioning pH 8.2, mean” value (from here on “steady-state desensitization, current %”) is on record as 0.13% on rat ASIC1a [2] (conditioning pH 6.8, 100 nM); 0.0205% at rat ASIC1a [2] (conditioning pH 6.8, 1 uM); -0.0952% at rat ASIC1a [2] (conditioning pH 6.8, 10 uM); 1.6% at rat ASIC1a [2] (conditioning pH 7.1, 100 nM); 9.0% on rat ASIC1a [2] (conditioning pH 7.1, 1 uM); 10.8% at rat ASIC1a [2] (conditioning pH 7.1, 10 uM). In addition, the “steady-state desensitization, current %” value at rat ASIC1a [2] (conditioning pH 7.4, 100 nM) stood at 88.8%; on rat ASIC1a [2] (conditioning pH 7.4, 1 uM), 84.6%; at rat ASIC1a [2] (conditioning pH 7.4, 10 uM) it was 85.5%; at rat ASIC1a [2] (conditioning pH 7.8, 100 nM) it was 98.6%; at rat ASIC1a [2] (conditioning pH 7.8, 1 uM), 95.5%; at rat ASIC1a [2] (conditioning pH 7.8, 10 uM), 95.9%. For the same molecule, the “steady-state desensitization, current %” value at rat ASIC1a [2] (conditioning pH 8.2, 100 nM) worked out at 100%; at rat ASIC1a [2] (conditioning pH 8.2, 1 uM), 100%; at rat ASIC1a [2] (conditioning pH 8.2, 10 uM) it was 100%. The “current remaining during pH 7.1-induced desensitization, normalized to pre-pH 7.1 pH 6.0 peak, mean” value turned out to be 75.8 on rat ASIC1a [3] (0.8 s in pH 7.1 (source data Fig. 3c)); 70.1 at rat ASIC1a [3] (1.6 s in pH 7.1); 61.0 at rat ASIC1a [3] (3.2 s in pH 7.1); 50.5 at rat ASIC1a [3] (6.4 s in pH 7.1); 36.9 on rat ASIC1a [3] (12.8 s in pH 7.1); 20.0 on rat ASIC1a [3] (25.6 s in pH 7.1). The entries for the “current remaining during pH 7.1-induced desensitization, normalized to pre-pH 7.1 pH 6.0 peak, mean” value on rat ASIC1a [3] (51.2 s in pH 7.1), at rat ASIC1a [3] (102.4 s in pH 7.1) and at rat ASIC1a [3] (204.8 s in pH 7.1) were 8.7, 4.9 and 3.1, respectively. The “time constant of development of pH 7.1-induced desensitization” value on rat ASIC1a [3] (single exponential, pH 6.0 test pulses) is 15.1 s and 15.1 ± 1.3 s. Moreover, the IC50 against ASIC2a is more than 50 µM.

For the molecule `COc1ccc(Oc2ccc(-c3nc4cc(C(=N)N)ccc4[nH]3)cc2)cc1OC` [JNJ-799760], the IC50 on ASIC2a is more than 50 µM.
